# Test system: primary progressive EAE (PP-EAE) in C57BL/6 female mice
# Test: MOG 35-55 induced primary progressive EAE (PP-EAE) in mice: clinical score, body weight, survival
# Conditions: for Body weight compared with untreated control (FIG. 2): P<0.05
# [1] = C57BL/6 mice, PP-EAE, GA Depot 4 mg IM Day 0, 1, Copaxone 2 mg SC Days 0-8, N = 20/group, +/- standard error
# [2] = C57BL/6 mice, PP-EAE, GA Depot 4 mg IM Day 0, 1, Copaxone 2 mg SC Days 0-8, N = 20/group, +/- standard error, listed as Copaxone®
# Method: Animals were given food and water ad-libitum throughout the experiment. […] A 21G needle was used for injections in mice. […] Measurements: Body weight was measured every two days from day 0 to day 28. EAE was assessed by clinical scoring of the mice once daily from Day 0 to Day 28 post immunization (Table 2). For analysis, dead animals received clinical score of 5 and the weight recorded at the last measurement before animal death.
# The following calculations were derived from clinical score raw data: mean maximum score is the mean of the highest scores noted for each mouse in a specific group up to indicated day of analysis; mean disease duration and mean day of onset were calculated as follows: Mean Disease Duration=Sum of (day of analysis−day of disease onset for each mouse)/(number of mice per group); Mean Day of Onset=(sum of day of disease onset of each mouse)/(number of mice per group). Area under the curve (AUC) of clinical score was calculated using Microsoft Excel and represents disease burden.
# Glatiramer Acetate Depot (GA Depot): GA Depot was suspended in water for injection (WFI) and immediately injected intramuscularly (IM) at the indicated dose. Dose of GA Depot are given according to amount of active ingredient (i.e. GA Depot 4 mg contains 4 mg GA).
# Statistical analysis: Data was analyzed using Microsoft Excel. Each data set was analyzed using single-factor analysis of variance (ANOVA) followed by one tailed student's T-test.
substance,measurement,setting,value
glatiramer acetate [Copaxone ®],Survival Rate at Day 28,"C57BL/6 mice, PP-EAE, GA Depot 4 mg IM Day 0, 1, Copaxone 2 mg SC Days 0-8, N = 20/group",90%
same,AUC Clinical Score,[1],26.83 ± 2.49
same,Mean Day of Onset,[1],12.35 ± 0.23
same,Mean Disease Duration,[1],15.65 ± 0.23
same,AUC Clinical Score,[2],significantly reduced
same,Mean Day of Onset,[2],significantly reduced
same,Mean Disease Duration,[2],significantly reduced
same,Maximum Mean Disease Score,"C57BL/6 mice, PP-EAE, GA Depot 4 mg IM Day 0, 1, Copaxone 2 mg SC Days 0-8, score 0-5, N = 20/group, +/- standard error",2.25 ± 0.22
same,Body weight compared with untreated control (FIG. 2),day 21,significantly higher
same,Body weight compared with untreated control (FIG. 2),days 10 to 17 following immunization,significantly higher
same,mean clinical score compared with saline group (FIG. 1),"days 11-19 and day 20, p<0.05, GA Depot 4 mg, Copaxone 2 mg days 0-8",mean clinical score of the saline group was significantly higher

# Source: patent publication US12343371B2, “Method for suppressing or alleviating primary or secondary progressive multiple sclerosis (PPMS or SPMS) using a sustained release depot formulation comprising glatiramer acetate” (MAPI PHARMA LTD., priority 2017, dated 2025)
